Columns and labels:
Assay type in all cases: cell-based
[1] = test system: androgen receptor (AR) expression; assay: Western blot analysis of AR protein expression in LNCaP cells; settings: for suppression of AR protein expression (in words): 72 h, Western blot
Method: RT-PCR and Immunoblotting. LNCaP cells were cultured in T25 flasks at an initial density of 1×10^6 cells/flask. After exposure to various compounds at the indicated conditions, cells were subject to total RNA isolation by using an RNeasy mini-kit (QIAGEN, Valencia, Calif.). RNA concentrations were determined by measuring absorption at 260 nm in a spectrophotometer. Aliquots of 6 μg of total RNA from each sample were reverse-transcribed to cDNA using an Omniscript RT Kit (QIAGEN) according to the manufacturer's instructions, using suitable primers.
For immunoblotting, protein extracts were prepared by M-PER Mammalian Protein Extraction Reagent (Pierce, Rockford, Ill.) with freshly added 1% phosphatase and protease inhibitor cocktails (Calbiochem) followed by centrifugation at 13,000×g for 10 min. Supernatant was collected and protein concentration was determined by protein assay reagent (Bio-Rad, CA). Protein extracts were then suspended in 2×SDS sample buffer, and subject to 10% SDS-polyacrylamide gels. After electrophoresis, proteins were transferred to nitrocellulose membranes using a semidry transfer cell. The transblotted membrane was washed twice with Tris-buffered saline containing 0.1% Tween 20 (TBST). After blocking with TBST containing 5% nonfat milk for 1 h, the membrane was incubated with mouse monoclonal anti-AR (Santa Cruz) or anti-β-actin (MP Biomedicals) antibodies (diluted 1:1000) in 1% TBST nonfat milk at 4° C. overnight. After incubation with the primary antibody, the membrane was washed three times with TBST for a total of 30 min, followed by incubation with horseradish peroxidase conjugated goat anti-mouse IgG (diluted 1:2500) for 1 h at room temperature. After three thorough washes with TBST for a total of 30 min, the immunoblots were visualized by enhanced chemiluminescence.

AR promoter = assay: AR promoter-luciferase reporter assay in transiently transfected LNCaP cells; settings: compounds at 10 μM, 48 h, ciglitazone and Δ2CG at 20 μM
Source text: (§1) Transfection and Luciferase assay. The 3.6-kilobase AR promoter-linked reporter plasmid p-3600ARCAT was kindly provided by Dr. Chawnshang Chang (University of Rochester Medical Center, Rochester, N.Y.). The AR promoter gene (−3600 to +550) encompassing the transcription start site was isolated by using PCR to generate hAR-luc with suitable primers. The fragment was subcloned into the pGL3 luciferase reporter vector (Promega, Madison, Wis.) at KpnI and BglII in the multiple cloning site. The PPRE-x3-TK-Luc reporter vector contains three copies of the PPAR-response element (PPRE) upstream of the thymidine kinase promoter-luciferase fusion gene and was kindly provided by Dr. Bruce Spiegelman (Harvard University, Cambridge, Mass.). The pCMVSp1 plasmid was purchased from Origene Technologies, Inc. (Rockville, Md.). LNCaP or PC3 cells were transfected with 5 μg of individual plasmids in an Amaxa Nucleofector using a cell line-specific nucleofector kit according to the manufacturer's protocol (Amaxa Biosystems, Cologne, Germany), and then seeded in 6-well plates at 5×10^5 cells per well for 48 h. The transfection efficiency was determined to be 70-80% by transfecting cells with 2 μg of pmaxGFP plasmid, followed by fluorescence microscopy to measure GFP expression. For each transfection, herpes simplex virus thymidine kinase promoter-driven Renilla reniformis luciferase was used as an internal control for normalization.
For the reporter gene assay, after transfection, cells were cultured in 24-well plates in 10% FBS-supplemented RPMI 1640 medium for 48 h, subject to different treatments for the indicated times, collected, and lysed with passive lysis buffer (Promega). Fifty-μl aliquots of the lysates were added to 96-well plates, and luciferase activity was monitored after adding 100 μl of luciferase substrate (Promega) each well by using a MicroLumatPlus LB96V luminometer (Berthold Technologies, Oak Ridge, Tenn.) with the WinGlow software package. All transfection experiments were carried out in six replicate.

[2] = test system: LNCaP androgen-responsive prostate cancer cells; assay: MTT cell viability assay, LNCaP cells; settings: 48 h
Method: Cell Counting and Cell Viability Assay. LNCaP or PC-3 cells were placed in six-well plates (2.5×10^5 cells/well) in 10% FBS-supplemented RPMI 1640 for 24 h, and treated with various concentrations of compound 12 for additional 24, 48 and 72 h. Cells were then trypsinized and counted by using a Coulter counter (Model Z1 D/T, Beckman Coulter, Fullerton, Calif.). Cell viability was assessed by using the 3-(4,5-dimethylthiazol-2-yl)-2,5-diphenyl-2H-tetrazolium bromide (MTT) assay in six replicates in 96-well plates. LNCaP or PC-3 cells were seeded at 6000 cells per well in 10% FBS-supplemented RPMI 1640 for 24 h, followed by treatments with various compounds in 5% FBS-supplemented RPMI 1640 at the indicated concentrations. Controls received DMSO at a concentration equal to that in drug-treated cells. After the end of incubation, MTT (0.5 mg/ml) in 10% FBS-supplemented RPMI 1640 was added to each well, and cells were incubated at 37° C. for 2 hours. Medium was removed and the reduced MTT dye was solubilized in DMSO (200 μl/well). Absorbance was determined at 570 nm by a 96-well plate reader.

[3] = test system: PARP cleavage, caspase 3 and caspase 7 activation; assay: Western blot of apoptosis-related biomarkers in LNCaP cells; settings: 72 h
PPARγ = biological target: T1, PPARγ (Homo sapiens, UniProt P37231); assay: PPRE-luciferase reporter assay (PPRE-x3-TK-Luc) in PC-3 cells; settings: PC-3 cells transfected with PPRE-x3-TK-Luc
T1 construct: In PC-3 cells transfected with a reporter construct (PPRE-x3-TK-Luc); endogenous in cells; host or cells: PC-3
T1 sequence (P37231 1-505): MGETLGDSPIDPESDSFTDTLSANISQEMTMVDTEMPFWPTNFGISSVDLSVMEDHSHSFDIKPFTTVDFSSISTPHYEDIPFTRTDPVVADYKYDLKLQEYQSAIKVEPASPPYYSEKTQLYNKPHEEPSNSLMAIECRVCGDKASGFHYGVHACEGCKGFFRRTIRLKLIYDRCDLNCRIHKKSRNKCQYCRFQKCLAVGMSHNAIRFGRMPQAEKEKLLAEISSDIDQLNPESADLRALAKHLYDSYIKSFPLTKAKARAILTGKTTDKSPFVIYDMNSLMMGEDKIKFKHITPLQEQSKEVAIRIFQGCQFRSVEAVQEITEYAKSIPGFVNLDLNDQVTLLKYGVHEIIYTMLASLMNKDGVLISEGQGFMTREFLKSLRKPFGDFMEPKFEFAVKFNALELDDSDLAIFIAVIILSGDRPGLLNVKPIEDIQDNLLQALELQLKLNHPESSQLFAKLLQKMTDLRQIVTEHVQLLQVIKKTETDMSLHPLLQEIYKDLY
Source text: as §1, with “The transfection efficiency was determined to be 70-80% by transfecting cells with 2 μg of pmaxGFP plasmid, followed by fluorescence microscopy to measure GFP expression.” left out
Fifty-μl aliquots of the lysates were added to 96-well plates, and luciferase activity was monitored after adding 100 μl of luciferase substrate (Promega) each well by using a MicroLumatPlus LB96V luminometer (Berthold Technologies, Oak Ridge, Tenn.) with the WinGlow software package. All transfection experiments were carried out in six replicate.

SMILES	suppression of AR protein expression (in words) ([1]; 10% FBS)	suppression of AR promoter-luciferase activity / AR transcription (in words) (AR promoter)	inhibition of LNCaP cell viability (in words) [2]	other results
CC1(COc2cccc(/C=C3\SC(=O)NC3=O)c2)CCCCC1 [Compound 1, 5-[3-(1-Methyl-cyclohexylmethoxy)-benzylidene]-thiazolidine-2,4-dione]	dose-dependent effect on suppressing AR protein expression	enhanced AR-ablating activity		
CCOc1cc(/C=C2\SC(=O)NC2=O)ccc1OCC1(C)CCCCC1 [Compound 6, 5-[3-Ethoxy-4-(1-methyl-cyclohexylmethoxy)-benzylidene]-thiazolidine-2,4-dione]	dose-dependent effect on suppressing AR protein expression			
CC1(CN2C(=O)S/C(=C\c3ccc(O)cc3)C2=O)CCCCC1 [Compound 9, 5-(4-Hydroxy-benzylidene)-3-(1-methyl-cyclohexylmethyl)-thiazolidine-2,4-dione]	dose-dependent effect on suppressing AR protein expression	enhanced AR-ablating activity		
CC1(CN2C(=O)S/C(=C\c3ccccc3O)C2=O)CCCCC1 [Compound 10, 5-(2-Hydroxy-benzylidene)-3-(1-methyl-cyclohexylmethyl)-thiazolidine-2,4-dione]		abolished the ability to suppress	abolished the ability to suppress	
CC1(CN2C(=O)S/C(=C\c3cccc(O)c3)C2=O)CCCCC1 [Compound 11, 5-(3-Hydroxy-benzylidene)-3-(1-methyl-cyclohexylmethyl)-thiazolidine-2,4-dione]		abolished the ability to suppress	abolished the ability to suppress	
CC1(CN2C(=O)S/C(=C\c3cc(Br)c(O)c(Br)c3)C2=O)CCCCC1 [Compound 16, 5-(3,5-Dibromo-4-hydroxy-benzylidene)-3-(1-methyl-cyclohexylmethyl)-thiazolidine-2,4-dione]		optimal agents	optimal agents	apoptosis-related biomarkers: PARP cleavage, proteolytic activation of caspase 3 and caspase 7 [3]: dose-dependent effects; IC50 ([1]; 72-h exposure, Western blot (FIG. 4C), read-out: IC50 for suppressing AR expression): ~4 µM; PPARγ activation (in words) (PPARγ): lacked appreciable activity
CC1(CN2C(=O)SC(Cc3ccc(O)c(C(F)(F)F)c3)C2=O)CCCCC1 (stereo not shown) [Compound 20, 5-(4-Hydroxy-3-trifluoromethyl-benzyl)-3-(1-methyl-cyclohexylmethyl)-thiazolidine-2,4-dione]	retained the ability to suppress AR expression and cell viability, though with slightly lower potency		retained the ability to suppress AR expression and cell viability, though with slightly lower potency	
CC1(COc2ccc(C=C3SC(=O)NC3=O)cc2)CCCCC1 [Δ2CG, reference compound]	modestly higher potency than ciglitazone			concentration required for complete suppression of AR protein expression ([1]; 10% FBS, Western blot (FIG. 2A)): approximately 30 μM; PPARγ activation (in words) (PPARγ): lacked appreciable activity

Reference: patent US7973062B2, “Androgen receptor-ablative agents” (The Ohio State University Research Foundation, priority 2008, dated 2011)
